Data published in patent publication US9988407B2, “Prodrugs of prostate specific membrane antigen (PSMA) inhibitor” (THE JOHNS HOPKINS UNIVERSITY, priority 2014, dated 2018).
Values joined by “and” are separate entries in the source; they are usually repeats but may differ in a detail not shown here. Identical values can stand only once.

Columns and labels:
[1] = Metabolic stability in monkey plasma; assay type: in vitro ADME; settings: 10 μM, 37° C.
Experimental: (§1) For metabolic stability, plasma (mouse, dog, monkey and human) and liver microsomes (mouse, dog, monkey and human) were used. For stability, prodrugs (10 μM) were spiked in each matrix and incubated in an orbital shaker at 37° C. At predetermined times (0, 30 and 60 min), 100 μL aliquots of the mixture in triplicate were removed and the reaction quenched by addition of three times the volume of ice cold acetonitrile spiked with the internal standard (losartan 5 μM). The samples were vortexed for 30 s and centrifuged 12000 g for 10 min. 50 μL supernatant diluted with 50 μL water was transferred to a 250 μL polypropylene vial sealed with a Teflon cap. Prodrug disappearance was monitored over time using a liquid chromatography and tandem mass spectrometry (LC/MS/MS) method as described below.
(§2) For LC/MS/MS, prodrugs were separated with Thermo Scientific Accela UPLC system coupled to Accela open autosampler on an Agilent C18 (100×2.1 mm id) UPLC column. The autosampler was temperature controlled and operating at 10° C. The mobile phase used for the chromatographic separation was composed of acetonitrile/water containing 0.1% formic acid and was run at a flow rate of 0.5 mL/minute for 4.5 minutes using gradient elution. The column effluent was monitored using TSQ Vantage triple-quadrupole mass spectrometric detector, equipped with an electrospray probe set in the positive ionization mode. Samples were introduced into the ionization source through a heated nebulized probe (350° C.).
(§3) For quantification of compound remaining, disappearance of prodrugs was measured from ratio of peak areas of analyte to IS. Percentage remaining was calculated in the following manner: […]

[2] = In vivo pharmacokinetics in mice, peroral, bioanalysis method 1 (total prodrug exposure); settings: mice, oral dosing
Summary of the method: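 Mice dosed orally; plasma sampled by cardiac puncture 0–4 h (n=3 per time) or at 30 min only. Total prodrug measured after methanol extraction and n-butanol/3N HCl derivatization by UPLC-MS/MS. Non-compartmental PK: observed Cmax/Tmax, AUC by log-linear trapezoidal rule, t1/2=0.693/ke.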

[3] = Metabolic stability in mouse plasma; assay type: in vitro ADME; settings: 10 μM, 37° C.
Summary of the method: (§4)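 Prodrugs at 10 μM were incubated in plasma or liver microsomes at 37° C, with triplicate samples taken at 0, 30 and 60 min and quenched in cold acetonitrile. Loss of prodrug was followed by LC/MS/MS in positive electrospray mode. Percent remaining came from the analyte-to-internal-standard peak-area ratio.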

[4] = In vivo pharmacokinetics in beagle dogs, p.o.; settings: 10 mg/kg (equiv 2-PMPA), N=1, single dose
Experimental: (by mouth). Blood samples were collected from the jugular vein (˜1 mL) via direct venipuncture, placed into potassium oxalate with sodium fluoride tubes, and maintained on wet ice until processed. Blood samples were centrifuged at a temperature of 4° C., at 3000×g, for 5 minutes. Blood samples were maintained chilled throughout processing. Plasma was collected in tubes and flash frozen. Samples were stored in a freezer set to maintain −60° C. to −80 OC until further analysis. […] The tissues were stored in −20° C. for 1 h and then homogenized. The calibration curve for the tissues was developed using naïve mouse brains from untreated animals as a matrix. For sciatic nerve, the nerves were weighed and homogenized in 50 μL methanol and the calibration curve was developed using naïve sciatic nerves from untreated animals as a matrix. The samples were vortexed and centrifuged. […] Supernatant was dried under a gentle stream of nitrogen at 45° C. and the residue reconstituted with 75 μL of acetonitrile and vortexed. 25 μL of derivatizing agent N-tert-Butyldimethysilyl-N-methyltrifluoro-acetamide (MTBSTFA) was added to microcentrifuge tubes, vortexed, and heated at ˜60 OC for 40 min. At the end of 40 min, the derivatized samples ˜75 μL were transferred to a 250 μL polypropylene vials and were analyzed via LC/MS/MS. […]

[5] = Metabolic stability in dog plasma; assay type: in vitro ADME; settings: 10 μM, 37° C.
Experimental: as §1, §2, §3

[6] = Metabolic stability in mouse liver microsomes; assay type: in vitro ADME; settings: 10 μM, 37° C.
Summary of the method: as §4

[7] = Metabolic stability in human plasma; assay type: in vitro ADME; settings: 10 μM, 37° C.
Summary of the method: as §4

What does the source list for CC(C)OC(=O)OCOC(=O)C(CCC(=O)O)CP(=O)(OCOC(=O)OC(C)C)OCOC(=O)OC(C)C (centres unmarked) [Compound 10]?
Percentage remaining ([1]; 0 min): 100%; Percentage remaining ([1]; 30 min): 50%; Percentage remaining ([1]; 60 min): 11%; permeability in vivo [2]: highest permeability; Percentage remaining ([3]; 0 min): 100%; Percentage remaining ([3]; 30 min): 1%; Percentage remaining ([3]; 60 min): 0%; Cmax [4]: high Cmax; Percentage remaining ([5]; 0 min): 100%; Percentage remaining ([5]; 30 min): 67%; Percentage remaining ([5]; 60 min): 28%; Percentage remaining ([6]; 0 min): 100%; Percentage remaining ([6]; 30 min): 1%; Percentage remaining ([6]; 60 min): 0%; Percentage remaining ([7]; 0 min): 100%; Percentage remaining ([7]; 30 min, listed as TRIS-POC): 102% and 64%; Percentage remaining ([7]; 60 min, listed as TRIS-POC): 77% and 48%
